Series [1] relates to fetal membranes. Briefly: Direct contact-induced apoptosis (TUNEL) in fetal membranes. It counts as cell-based. The method, then:
Toxicity tests. Toxicity of sealants for fetal membrane cells was evaluated using direct contact and elution tests, as per International Organization for Standardization (ISO) 10993-5 guidelines.
Direct contact cytotoxicity. […] 4.5 software (Carl Zeiss).

In series [2] the test system is epididymal fat pad. Briefly: Material-only implantation at the murine epididymal fat pad. Details: species or system C57BL6 mice. Conditions: mouse, in vivo. The method, then: Material-only implantation. Healthy, age-matched male C57BL6 mice (Jackson Laboratories, Bar Harbor, Me.) were anesthetized with nebulized isoflurane (IsoThesia; Butler/Abbott Laboratories, North Chicago, Ill.) and intraperitoneal injection of 2% Avertin (2,2,2-tribromoethanol, Sigma) at 0.3 mg/g body weight, prior to shaving of the abdomen and sterile preparation of the surgical site. The left epididymal fat pad was exposed through midline lower abdominal incision and manipulation of the tissue flap. This thin, well-vascularized tissue is analogous to the omentum of larger mammals and has dimensions on the order of 1.5—1.5 cm. Sterile, two-component mixing and adhesive delivery was achieved by a dual-barrel blending connector with mixer device (Micromedics, St Paul, Minn.) containing sterile-filtered 300 mg/mL cPEG and 0.056 M sodium periodate, respectively.
Following topical delivery of approximately […] adhesive, the deposition site was left undisturbed for 1 min. The sample site was then manually reinserted into the lower abdominal cavity and the incision closed with double-layer suture. Mice were monitored postoperatively until conscious recovery. At three days, two weeks, six weeks, and one-year post-implant, the adhesive and associated adipose tissue was surgically removed from anesthetized mice, prior to euthanasia. […]

The test system of series [3] is fetal membranes.
Method: Direct contact cytotoxicity. Direct contact studies were performed with term fetal membranes obtained from three cases. The amniotic layer was chosen for sealant application (FIG. 1A) because this layer was proposed to be the strength-bearing layer of fetal membranes and major determinant for PPROM.^31 2×1 cm patches of freshly harvested fetal membranes were placed into wells of 6-well plates with amnion layer up. […] Membranes covered with sealant were covered with 3 mL culture medium (Ham's F-12/DMEM supplemented with 10% FBS, 100 U/ml penicillin, and 100 μg/ml streptomycin) and cultured for 24 h at 37° C. […] Deparaffinized sections were either stained with hematoxylin-eosin (H/E), or stained for apoptotic cells using TUNEL technology (Terminal deoxynucleotidyl transferase dUTP nick end labeling; In Situ Cell Death Detection Kit, Fluorescein (Roche Diagnostics GmbH, Mannheim, Germany). For total cell counts, all cell nuclei were counterstained with 4′,6-diamidin-2′-phenylindol-dihydrochlorid (DAPI; Sigma, Buchs, Switzerland). The histologic images were taken with a Zeiss Axiovert 200M fluorescent microscope (Carl Zeiss, Goettingen, Germany) equipped with an Zeiss AxioCam MRc digital camera and analysed with AxioVision Rel. […] One tissue section per case was analysed, taking four optical fields per section for analysis.

Consider “four-armed catechol-terminated polyethylene glycol (cPEG) [cPEG adhesive]”, for which the “apoptosis compared with control” value in series [1] is reported as “did not enhance apoptosis over control”. Further, in series [2], the “immediate local reaction at deposition site” value is listed as “no immediate visible inflammation or redness” and the non-specific postsurgical adhesions result is given as “no evidence of non-specific postsurgical adhesions”. The “effect on membrane morphology” value in series [3] is listed as “normal membrane morphology appeared maintained”.

These data come from patent US8409602B2, “Sealants for fetal membrane repair” (Northwestern University, priority 2009, dated 2013).
